Measured values reported in ChEMBL document CHEMBL6071193, “Structure-Activity Relationship of Potent, Selective, and Orally Bioavailable Molecular Glue Degraders of CK1α” (ACS Med Chem Lett, 2024).
≈ marks a conversion by molar mass, not a printed value. Calls of active or inactive are those of the source. No cut-off for these calls is given here.

Assays:
[1] = Metabolic stability in mouse liver microsomes assessed as half-life at 10 uM measured upto 4 hrs in presence of NADPH by UPLC-MS/MS analysis; format: ADME, Microsome; settings: microsomes, 4 h, 10 µM
[2] = biological target: T1, Cereblon/Casein kinase I alpha (Homo sapiens, UniProt P48729+Q96SW2); assay: Binding affinity to Halo-tagged CRBN (unknown origin)/HiBiT-tagged CK1alpha in HEK293 cells transfected with LgBiT expression vector assessed as ternary complex formation by measuring fold increase in NanoBRET signal preincubated with MG132 for 30 mins followed by compound addition and measured after 2 hrs by NanoBRET assay relative to control; format: cell-based
Target sequence in this assay (P48729 2-337 limits assumed): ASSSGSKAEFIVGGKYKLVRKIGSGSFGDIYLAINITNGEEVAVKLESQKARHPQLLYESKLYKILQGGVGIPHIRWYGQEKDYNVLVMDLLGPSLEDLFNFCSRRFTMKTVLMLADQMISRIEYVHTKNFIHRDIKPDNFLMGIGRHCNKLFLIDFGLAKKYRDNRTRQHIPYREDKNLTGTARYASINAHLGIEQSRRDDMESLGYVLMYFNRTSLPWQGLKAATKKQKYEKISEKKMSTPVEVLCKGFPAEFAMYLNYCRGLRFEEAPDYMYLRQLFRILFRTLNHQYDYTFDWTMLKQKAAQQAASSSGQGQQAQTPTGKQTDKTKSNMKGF
Target sequence in this assay (Q96SW2 whole entry partner): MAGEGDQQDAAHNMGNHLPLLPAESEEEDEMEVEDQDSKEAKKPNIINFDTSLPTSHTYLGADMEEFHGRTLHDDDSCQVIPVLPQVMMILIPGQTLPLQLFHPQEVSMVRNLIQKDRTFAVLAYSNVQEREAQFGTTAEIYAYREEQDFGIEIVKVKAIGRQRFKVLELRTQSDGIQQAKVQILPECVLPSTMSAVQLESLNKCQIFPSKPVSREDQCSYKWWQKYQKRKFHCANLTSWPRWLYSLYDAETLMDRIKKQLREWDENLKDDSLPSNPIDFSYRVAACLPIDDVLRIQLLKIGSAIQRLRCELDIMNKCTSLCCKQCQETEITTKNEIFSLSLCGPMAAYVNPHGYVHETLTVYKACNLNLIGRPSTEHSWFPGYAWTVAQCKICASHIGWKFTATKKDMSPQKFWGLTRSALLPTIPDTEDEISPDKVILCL

MOLM-13 [3] = assay: Downregulation of CK1alpha protein level in human MOLM-13 cells at 1 uM measured after 4 hrs by TMT-proteomic analysis; format: functional, cell-based
Jurkat = assay: Cytotoxicity against human Jurkat cells expressing HiBiT-tagged IKZF1 at 0.0001 to 100 uM measured over 24 hrs by Cell-Titer Glo assay; format: toxicity, cell-based; settings: dose 0.0001-100 µM
[4] = biological target: T1, Cereblon/Casein kinase I alpha; assay: PROTAC activity at CRBN/HiBiT-tagged CK1alpha in HEK293 cells transfected with LgBiT expression vector assessed as induction of CK1alpha degradation by measuring degradation rate at 10 uM measured after 24 hrs by luminescence based GloMax Discover assay; format: cell-based
Target sequence in this assay (P48729 2-337 limits assumed): as the sequence (P48729 2-337 limits assumed) above
Target sequence in this assay (Q96SW2 whole entry partner): as the sequence (Q96SW2 whole entry partner) above

[5] = Tmax in female CD-1 mouse at 10 mg/kg, po administered as 5% v/v NMP, 5% v/v solutol HS-15, 20% PEG 400 and 70% v/v normal saline formulation and measured after 24 hrs; format: ADME, organism-based; settings: in vivo
[6] = biological target: Protein cereblon/Eukaryotic peptide chain release factor GTP-binding subunit ERF3A (Homo sapiens) (UniProt Q96SW2+P15170); assay: PROTAC activity at CRBN (unknown origin)/human HiBiT-tagged GSPT1 transfected in HEK293 cells assessed as induction of GSPT1 degradation measured after 24 hrs by Nano-Glo reagent based luminescence analysis; format: cell-based
Protein cereblon/Eukaryotic peptide chain release factor GTP-binding subunit ERF3A (Homo sapiens), sequence (P15170 whole entry, looked up): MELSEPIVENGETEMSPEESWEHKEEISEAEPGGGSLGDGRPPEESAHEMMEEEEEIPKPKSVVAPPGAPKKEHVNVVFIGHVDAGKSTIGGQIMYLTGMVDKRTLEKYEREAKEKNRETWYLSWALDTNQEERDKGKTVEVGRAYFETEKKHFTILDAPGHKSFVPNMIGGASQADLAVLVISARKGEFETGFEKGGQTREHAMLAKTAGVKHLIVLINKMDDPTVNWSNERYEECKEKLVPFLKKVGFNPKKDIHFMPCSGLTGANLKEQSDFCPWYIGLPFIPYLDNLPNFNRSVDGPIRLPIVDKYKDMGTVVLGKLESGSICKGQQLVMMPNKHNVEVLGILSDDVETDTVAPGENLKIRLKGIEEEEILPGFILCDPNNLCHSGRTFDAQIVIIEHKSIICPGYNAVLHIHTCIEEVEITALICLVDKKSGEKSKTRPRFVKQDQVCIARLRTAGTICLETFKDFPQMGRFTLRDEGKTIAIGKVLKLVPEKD
Protein cereblon/Eukaryotic peptide chain release factor GTP-binding subunit ERF3A (Homo sapiens), sequence (Q96SW2 whole entry, looked up): as the sequence (Q96SW2 whole entry partner) above

[7] = biological target: T1, Cereblon/Casein kinase I alpha; assay: Binding affinity to Halo-tagged CRBN (unknown origin)/HiBiT-tagged CK1alpha in HEK293 cells transfected with LgBiT expression vector assessed as ternary complex formation preincubated with MG132 for 30 mins followed by compound addition and measured after 2 hrs by NanoBRET assay; format: cell-based
Target sequence in this assay (P48729 whole entry): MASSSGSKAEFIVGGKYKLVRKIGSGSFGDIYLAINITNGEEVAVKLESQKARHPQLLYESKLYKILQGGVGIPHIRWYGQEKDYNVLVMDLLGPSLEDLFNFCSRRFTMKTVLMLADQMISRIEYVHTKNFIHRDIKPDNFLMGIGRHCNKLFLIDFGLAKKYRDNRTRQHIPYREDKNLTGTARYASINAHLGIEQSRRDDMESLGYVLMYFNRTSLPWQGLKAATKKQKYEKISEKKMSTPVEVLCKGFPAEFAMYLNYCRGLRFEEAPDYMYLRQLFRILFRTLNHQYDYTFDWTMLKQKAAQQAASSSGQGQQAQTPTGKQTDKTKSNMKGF
Target sequence in this assay (Q96SW2 whole entry): as the sequence (Q96SW2 whole entry partner) above

[8] = Volume of distribution at steady state in female CD-1 mouse at 3 mg/kg, iv administered as 5% v/v NMP, 5% v/v solutol HS-15, 20% PEG 400 and 70% v/v normal saline formulation and measured after 24 hrs; format: ADME, organism-based; settings: in vivo
HEK293 = assay: Cytotoxicity against HEK293 cells expressing HiBiT-tagged CK1alpha at 0.0001 to 100 uM measured over 24 hrs by Cell-Titer Glo assay; format: toxicity, cell-based; settings: human, hek293, 24 h, dose 0.0001-100 µM
[9] = Apparent permeability across basolateral to apical side in MDCK-II cells at 10 micromol/L incubated for 1 hrs by UPLC/MS analysis; format: ADME, cell-based, Canis lupus familiaris; settings: dog, mdck-ii, 1 h, 10 µM, dose 10 µmol/L
[10] = Cmax in female CD-1 mouse at 3 mg/kg, iv administered as 5% v/v NMP, 5% v/v solutol HS-15, 20% PEG 400 and 70% v/v normal saline formulation and measured after 24 hrs; format: ADME, organism-based; settings: in vivo
[11] = Cmax in female CD-1 mouse at 10 mg/kg, po administered as 5% v/v NMP, 5% v/v solutol HS-15, 20% PEG 400 and 70% v/v normal saline formulation and measured after 24 hrs; format: ADME, organism-based; settings: in vivo
[12] = Metabolic stability in pooled human liver microsomes assessed as half-life at 10 uM measured upto 4 hrs in presence of NADPH by UPLC-MS/MS analysis; format: ADME, Microsome
[13] = Stability in mouse plasma assessed as half-life at 10 uM measured upto 48 hrs by UPLC-MS/MS analysis; format: ADME, cell-free; settings: 48 h, 10 µM
[14] = AUClast in female CD-1 mouse at 10 mg/kg, po administered as 5% v/v NMP, 5% v/v solutol HS-15, 20% PEG 400 and 70% v/v normal saline formulation and measured after 24 hrs; format: ADME, organism-based; settings: in vivo
[15] = biological target: T1, Cereblon/Casein kinase I alpha; assay: PROTAC activity at CRBN/HiBiT-tagged CK1alpha in HEK293 cells transfected with LgBiT expression vector assessed as induction of CK1alpha degradation by measuring maximal efficacy at 10 uM measured after 24 hrs by luminescence based GloMax Discover assay relative to control; format: cell-based
Target sequence in this assay (P48729 2-337 limits assumed): as the sequence (P48729 2-337 limits assumed) above
Target sequence in this assay (Q96SW2 whole entry partner): as the sequence (Q96SW2 whole entry partner) above

[16] = Oral bioavailability in female CD-1 mouse at 10 mg/kg administered as 5% v/v NMP, 5% v/v solutol HS-15, 20% PEG 400 and 70% v/v normal saline formulation and measured after 24 hrs; format: ADME, organism-based; settings: in vivo
[17] = Solubility of compound at pH 7.4 incubated for 18 hrs by UV-spectra analysis; format: physicochemical; settings: buffer; for solubility: pH 7.4, 18 h
[18] = biological target: T1, Cereblon/Casein kinase I alpha; assay: PROTAC activity at CRBN/HiBiT-tagged CK1alpha in HEK293 cells transfected with LgBiT expression vector assessed as induction of CK1alpha degradation measured after 24 hrs by luminescence based GloMax Discover assay; format: cell-based
Target sequence in this assay (P48729 whole entry): as the sequence (P48729 whole entry) above
Target sequence in this assay (Q96SW2 whole entry): as the sequence (Q96SW2 whole entry partner) above

[19] = Stability in human plasma assessed as half-life at 10 uM measured upto 48 hrs by UPLC-MS/MS analysis; format: ADME, cell-free
[20] = Clearance in female CD-1 mouse assessed as hepatic blood flow at 3 mg/kg, iv administered as 5% v/v NMP, 5% v/v solutol HS-15, 20% PEG 400 and 70% v/v normal saline formulation and measured after 24 hrs; format: ADME, organism-based; settings: in vivo
[21] = Half-life in female CD-1 mouse at 3 mg/kg, iv administered as 5% v/v NMP, 5% v/v solutol HS-15, 20% PEG 400 and 70% v/v normal saline formulation and measured after 24 hrs; format: ADME, organism-based; settings: in vivo
Cereblon/Ikaros = Cereblon/Ikaros (Homo sapiens, UniProt Q96SW2+Q13422); assay: PROTAC activity at CRBN/HiBiT-tagged IKZF1 in human Jurkat cells transfected with LgBiT expression vector assessed as induction of IKZF1 degradation measured after 24 hrs by luminescence based GloMax Discover assay; format: cell-based
MOLM-13 [22] = assay: Antiproliferative activity against human MOLM-13 cells incubated for 72 hrs by Cell-Titer Glo assay; format: functional, cell-based; settings: MOLM-13, 72 h
[23] = Apparent permeability across apical to basolateral side in MDCK-II cells at 10 micromol/L incubated for 1 hrs by UPLC/MS analysis; format: ADME, cell-based, Canis lupus familiaris; settings: dog, mdck-ii, 1 h, 10 µM, dose 10 µmol/L
[24] = AUClast in female CD-1 mouse at 3 mg/kg, iv administered as 5% v/v NMP, 5% v/v solutol HS-15, 20% PEG 400 and 70% v/v normal saline formulation and measured after 24 hrs; format: ADME, organism-based; settings: in vivo
[25] = Oral bioavailability in female CD-1 mouse at 10 mg/kg administered as 5% v/v NMP, 5% v/v solutol HS-15 and 70% v/v normal saline formulation and measured after 24 hrs; format: ADME, organism-based; settings: in vivo
[26] = Half-life in female CD-1 mouse at 3 mg/kg, iv administered as 5% v/v NMP, 5% v/v solutol HS-15 and 70% v/v normal saline formulation and measured after 24 hrs; format: ADME, organism-based; settings: in vivo
[27] = Metabolic stability in human hepatocytes assessed as half-life; format: ADME, cell-based, Hepatocyte
[28] = Cmax in female CD-1 mouse at 3 mg/kg, iv administered as 5% v/v NMP, 5% v/v solutol HS-15 and 70% v/v normal saline formulation and measured after 24 hrs; format: ADME, organism-based; settings: in vivo
[29] = Cmax in female CD-1 mouse at 10 mg/kg, po administered as 5% v/v NMP, 5% v/v solutol HS-15 and 70% v/v normal saline formulation and measured after 24 hrs; format: ADME, organism-based; settings: in vivo
[30] = AUClast in female CD-1 mouse at 10 mg/kg, po administered as 5% v/v NMP, 5% v/v solutol HS-15 and 70% v/v normal saline formulation and measured after 24 hrs; format: ADME, organism-based; settings: in vivo
[31] = Volume of distribution at steady state in female CD-1 mouse at 3 mg/kg, iv administered as 5% v/v NMP, 5% v/v solutol HS-15 and 70% v/v normal saline formulation and measured after 24 hrs; format: ADME, organism-based; settings: in vivo
[32] = AUClast in female CD-1 mouse at 3 mg/kg, iv administered as 5% v/v NMP, 5% v/v solutol HS-15 and 70% v/v normal saline formulation and measured after 24 hrs; format: ADME, organism-based; settings: in vivo
[33] = Metabolic stability in CD1 mouse hepatocytes assessed as half-life; format: ADME, cell-based, Hepatocyte; settings: mouse

Q: What does the source list for `O=C1CCC(N2Cc3cc(NC(=O)c4cccc(F)c4)ccc3C2=O)C(=O)N1` (stereo not given)?
A: t1/2 [1]: > 10 h; fold change (FC) [2]: 7.4; Activity (MOLM-13 [3]): Active; Activity (Jurkat): Non-Toxic; Activity [4]: 1.3 h⁻¹; Tmax [5]: 0.25 h; Activity [6]: inactive; EC50 [7]: 119 nM; Vdss [8]: 0.88 L/kg; Activity (HEK293): Non-Toxic; Papp [9]: 1.8 ×10⁻⁶ cm/s; Cmax [10]: 6450 ng/mL; Cmax [11]: 1617 ng/mL; t1/2 [12]: > 10 h; t1/2 [13]: 10 h; AUClast [14]: 2804 ng·h/mL; Emax [15]: 88%; F [16]: 41%; solubility [17]: 19 µM (≈ 7.25 µg/mL); DC50 [18]: 4 nM; t1/2 [19]: 10.6 h; QH [20]: 27%; t1/2 [21]: 1.19 h; Activity (Cereblon/Ikaros): inactive; IC50 (MOLM-13 [22]): 28 nM; Papp [23]: 0.6 ×10⁻⁶ cm/s; AUClast [24]: 2049 ng·h/mL

Q: With `O=C1CCC(N2Cc3cc(Nc4noc5cc(F)ccc45)ccc3C2=O)C(=O)N1` (stereo not given) as the molecule, how does the t1/2 [1] read?
A: > 10 h

Q: And the Activity [4]?
A: 3.5 h⁻¹

Q: What about the F [25] of the same molecule?
A: 10%

Q: What about the t1/2 [26] of the same molecule?
A: 1.98 h

Q: And the t1/2 [27]?
A: > 3.6 h

Q: What about the Papp [9] of the same molecule?
A: 10.4 ×10⁻⁶ cm/s

Q: And the Cmax [28]?
A: 4240 ng/mL

Q: What about the Cmax [29] of the same molecule?
A: 330 ng/mL

Q: What about the t1/2 [13] of the same molecule?
A: 17 h

Q: And the Emax [15]?
A: 95%

Q: What about the AUClast [30] of the same molecule?
A: 306 ng·h/mL

Q: And the solubility [17]?
A: 26 µM (≈ 10.3 µg/mL)

Q: What about the DC50 [18] of the same molecule?
A: 4 nM

Q: And the Vdss [31]?
A: 1.34 L/kg

Q: And the AUClast [32]?
A: 911 ng·h/mL

Q: And the IC50 (MOLM-13 [22])?
A: 21 nM

Q: What about the Papp [23] of the same molecule?
A: 19.7 ×10⁻⁶ cm/s

Q: Which results are given for `O=C1CCC(N2Cc3cc(Nc4noc5ccccc45)ccc3C2=O)C(=O)N1` (stereo not given)?
A: t1/2 [1]: > 10 h; Activity (MOLM-13 [3]): Active; Activity [4]: 3.5 h⁻¹; Vdss [8]: 1.11 L/kg; t1/2 [27]: > 3.6 h; Papp [9]: 26.2 ×10⁻⁶ cm/s; Cmax [10]: 2700 ng/mL; Cmax [11]: 207 ng/mL; t1/2 [12]: > 10 h; t1/2 [13]: 25 h; AUClast [14]: 264 ng·h/mL; Emax [15]: 95%; F [16]: 9.5%; solubility at 18 h ([17]; pH 7.4): 36 µM (≈ 13.5 µg/mL); DC50 [18]: 1 nM; t1/2 [19]: 8.5 h; t1/2 [21]: 0.35 h; IC50 (MOLM-13 [22]): 13 nM; Papp [23]: 24.5 ×10⁻⁶ cm/s; t1/2 [33]: > 3.6 h; AUClast [24]: 832 ng·h/mL
